Laboratory results as given in patent US5202315A, “Cephalosporin compounds” (Lucky, Ltd., priority 1989, dated 1993).
In brackets after ≈: the same amount, converted by molar mass.

Experiments:
Test in all cases: Antibacterial activity, MIC
Type in all cases: cell-based
[1] = test system: Citrobacter freundii ATCC 8090; conditions: ATCC8090, ATCC 8090, agar two-fold dilution, 37° C., 20 hours, read-out: MIC
Outline: (§1)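 Values reflect agar dilution testing: Mueller-Hinton medium, two-fold compound series, 2 μl inoculum of 10^7 CFU/ml, 20 h incubation at 37 °C.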

[2] = test system: Enterobacter aerogenes ATCC 29751; conditions: Klebsiella aerogenes, ATCC29751; ATCC 29751; agar two-fold dilution, 37° C., 20 hours; read-out: MIC
Outline: as §1

[3] = test system: Klebsiella pneumoniae ATCC 10031; conditions: ATCC10031, ATCC 10031, agar two-fold dilution, 37° C., 20 hours, read-out: MIC
Outline: as §1

[4] = test system: Enterobacter cloacae ATCC 27508; conditions: ATCC27508, ATCC 27508, agar two-fold dilution, 37° C., 20 hours, read-out: MIC
Outline: as §1

[5] = test system: Bacillus cereus ATCC 11778; conditions: ATCC11778, ATCC 11778, agar two-fold dilution, 37° C., 20 hours, read-out: MIC
Outline: as §1

[6] = test system: Pseudomonas aeruginosa ATCC 10145; conditions: ATCC10145, ATCC 10145, agar two-fold dilution, 37° C., 20 hours, read-out: MIC
Outline: as §1

[7] = test system: Pseudomonas aeruginosa ATCC 25619; conditions: ATCC25619, ATCC 25619, agar two-fold dilution, 37° C., 20 hours, read-out: MIC
Outline: as §1

[8] = test system: Micrococcus luteus ATCC 9341; conditions: ATCC9341, ATCC 9341, agar two-fold dilution, 37° C., 20 hours, read-out: MIC
Outline: as §1

[9] = test system: Escherichia coli ATCC 10536; conditions: ATCC10536, agar two-fold dilution, 37° C., 20 hours
Outline: as §1

[10] = test system: Shigella flexneri ATCC 11836; conditions: ATCC11836, agar two-fold dilution, 37° C., 20 hours
Outline: as §1

[11] = test system: Proteus mirabilis ATCC 25933; conditions: ATCC25933, ATCC 25933, agar two-fold dilution, 37° C., 20 hours, read-out: MIC
Outline: as §1

[12] = test system: Staphylococcus aureus ATCC 10537; conditions: ATCC10537, ATCC 10537, agar two-fold dilution, 37° C., 20 hours, read-out: MIC
Outline: as §1

[13] = test system: Staphylococcus aureus ATCC 6538p; conditions: ATCC6538P, ATCC 6538p, agar two-fold dilution, 37° C., 20 hours, read-out: MIC
Outline: as §1

[14] = test system: Providencia rettgeri ATCC 9250; conditions: ATCC9250, agar two-fold dilution, 37° C., 20 hours
Outline: as §1

[15] = test system: Salmonella typhimurium ATCC 14028; conditions: Salmonella enterica; ATCC 14028; agar two-fold dilution, 37° C., 20 hours; read-out: MIC
Outline: as §1

[16] = test system: Staphylococcus epidermidis ATCC 12228; conditions: ATCC12228, ATCC 12228, agar two-fold dilution, 37° C., 20 hours, read-out: MIC
Outline: as §1

[17] = test system: Morganella morganii ATCC 8076h; conditions: ATCC8076H, agar two-fold dilution, 37° C., 20 hours
Outline: as §1

[18] = test system: Acinetobacter calcoaceticus ATCC 15473; conditions: ATCC15473, ATCC 15473, agar two-fold dilution, 37° C., 20 hours, read-out: MIC
Outline: as §1

[19] = test system: Streptococcus faecalis ATCC 29212; conditions: Enterococcus faecalis, ATCC29212; ATCC 29212; agar two-fold dilution, 37° C., 20 hours; read-out: MIC
Outline: as §1

[20] = test system: Bacillus megaterium ATCC 9885; conditions: Priestia megaterium, ATCC9885; ATCC 9885; agar two-fold dilution, 37° C., 20 hours; read-out: MIC
Outline: as §1

[21] = test system: Proteus vulgaris ATCC 6059; conditions: ATCC6059, ATCC 6059, agar two-fold dilution, 37° C., 20 hours, read-out: MIC
Outline: as §1

[22] = test system: Shigella sonnei ATCC 11060; conditions: ATCC11060, ATCC 11060, agar two-fold dilution, 37° C., 20 hours, read-out: MIC
Outline: as §1

[23] = test system: Pseudomonas aeruginosa ATCC 27853; conditions: ATCC27853, ATCC 27853, agar two-fold dilution, 37° C., 20 hours, read-out: MIC
Outline: as §1

[24] = test system: Escherichia coli ATCC 25922; conditions: ATCC25922, agar two-fold dilution, 37° C., 20 hours
Outline: as §1

[25] = test system: Serratia marcescens ATCC 27117; conditions: ATCC27117, ATCC 27117, agar two-fold dilution, 37° C., 20 hours, read-out: MIC
Outline: as §1

SMILES	MIC [1]	MIC [2]	MIC [3]	MIC [4]	MIC [5]	MIC [6]	MIC [7]	MIC [8]	MIC [9]	MIC [10]	MIC [11]	MIC [12]	MIC [13]	MIC [14]	MIC [15]	MIC [16]	MIC [17]	MIC [18]	MIC [19]	MIC [20]	further results
CC(C)(O/N=C(\C(=O)NC1C(=O)N2C(C(=O)[O-])=C(CSc3nc(N)cc(N)[n+]3C3CC3)CSC12)c1csc(N)n1)C(=O)O (stereo not drawn) [Compound I-48]	0.13 mg/L (≈ 0.2 µM)	2 mg/L (≈ 3.08 µM)	0.063 mg/L (≈ 0.097 µM)	0.031 mg/L (≈ 0.0477 µM)	64 mg/L (≈ 98.5 µM)	4 mg/L (≈ 6.16 µM)	2 mg/L (≈ 3.08 µM)	0.5 mg/L (≈ 0.77 µM)	0.13 mg/L (≈ 0.2 µM)	0.063 mg/L (≈ 0.097 µM)	0.063 mg/L (≈ 0.097 µM)	4 mg/L (≈ 6.16 µM)	4 mg/L (≈ 6.16 µM)	≤ 0.008 mg/L	0.5 mg/L (≈ 0.77 µM)	2 mg/L (≈ 3.08 µM)	≤ 0.008 mg/L	4 mg/L (≈ 6.16 µM)	> 128 mg/L	0.5 mg/L (≈ 0.77 µM)	MIC [21]: 0.13 mg/L (≈ 0.2 µM); MIC [22]: 0.13 mg/L (≈ 0.2 µM); MIC [23]: 2 mg/L (≈ 3.08 µM); MIC [24]: 0.13 mg/L (≈ 0.2 µM); MIC [25]: 0.25 mg/L (≈ 0.385 µM)
C=CCO/N=C(\C(=O)NC1C(=O)N2C(C(=O)[O-])=C(CSc3nc(N)cc(N)[n+]3C)CSC12)c1csc(N)n1 (stereo not drawn) [Compound I-49]	0.25 mg/L (≈ 0.433 µM)	1 mg/L (≈ 1.73 µM)	0.016 mg/L (≈ 0.0277 µM)	0.031 mg/L (≈ 0.0537 µM)	32 mg/L (≈ 55.4 µM)	16 mg/L (≈ 27.7 µM)	1 mg/L (≈ 1.73 µM)	0.031 mg/L (≈ 0.0537 µM)	0.25 mg/L (≈ 0.433 µM)	0.063 mg/L (≈ 0.109 µM)	0.5 mg/L (≈ 0.866 µM)	0.25 mg/L (≈ 0.433 µM)	0.25 mg/L (≈ 0.433 µM)	≤ 0.008 mg/L	1 mg/L (≈ 1.73 µM)	0.13 mg/L (≈ 0.225 µM)	≤ 0.008 mg/L	8 mg/L (≈ 13.8 µM)	16 mg/L (≈ 27.7 µM)	0.25 mg/L (≈ 0.433 µM)	MIC [21]: 0.5 mg/L (≈ 0.866 µM); MIC [22]: 0.25 mg/L (≈ 0.433 µM); MIC [23]: 8 mg/L (≈ 13.8 µM); MIC [24]: 0.25 mg/L (≈ 0.433 µM); MIC [25]: 0.5 mg/L (≈ 0.866 µM)
C=CCO/N=C(\C(=O)NC1C(=O)N2C(C(=O)[O-])=C(CSc3nc(N)cc(N)[n+]3CC)CSC12)c1csc(N)n1 (stereo not drawn) [Compound I-50]	0.13 mg/L (≈ 0.22 µM)	0.5 mg/L (≈ 0.845 µM)	≤ 0.008 mg/L	0.016 mg/L (≈ 0.027 µM)	8 mg/L (≈ 13.5 µM)	4 mg/L (≈ 6.76 µM)	1 mg/L (≈ 1.69 µM)	≤ 0.008 mg/L	0.13 mg/L (≈ 0.22 µM)	0.031 mg/L (≈ 0.0524 µM)	0.25 mg/L (≈ 0.423 µM)	0.13 mg/L (≈ 0.22 µM)	0.13 mg/L (≈ 0.22 µM)	≤ 0.008 mg/L	0.5 mg/L (≈ 0.845 µM)	0.063 mg/L (≈ 0.106 µM)	≤ 0.008 mg/L	4 mg/L (≈ 6.76 µM)	8 mg/L (≈ 13.5 µM)	0.13 mg/L (≈ 0.22 µM)	MIC [21]: 0.25 mg/L (≈ 0.423 µM); MIC [22]: 0.13 mg/L (≈ 0.22 µM); MIC [23]: 4 mg/L (≈ 6.76 µM); MIC [24]: 0.13 mg/L (≈ 0.22 µM); MIC [25]: 0.25 mg/L (≈ 0.423 µM)
